Biological target: T1, HiPIP (Thermochromatium tepidum, UniProt P80176)
T1 construct: gene hip; native, purified from cells by DEAE chromatography in the reduced state; co-crystallised with native LH1-RC; with Photosynthetic reaction center cytochrome c subunit
Assay: X-ray crystal structure of HiPIP:LH1-RC co-complex, […] Å
Type: binding
Conditions: pH 5; 4Fe-4S cluster ligated by Cys; HiPIP purified in reduced state; bound to LH1-RC

T1 sequence (P80176 whole entry, other chains not shown): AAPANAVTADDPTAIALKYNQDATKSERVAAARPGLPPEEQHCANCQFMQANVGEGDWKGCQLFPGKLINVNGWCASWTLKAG

SMILES: [S]12[Fe]3[S]4[Fe]1[S]1[Fe]2[S]3[Fe]41 [4Fe-4S cluster]
- X-ray crystal structure of HiPIP:LH1-RC co-complex, 2.9 Å: Fe atoms in both hemes and the 4Fe-4S cluster were clearly resolved

From publication PMC7889895, “Crystal structure of a photosynthetic LH1-RC in complex with its electron donor HiPIP” (Nature Communications, 2021)
